Laboratory results reported in PMC5218480 (PLoS ONE, 2017).

Test system: MV-4-11 cells
Experiment: Gene expression microarray analysis (Affymetrix PrimeView) and GSEA
Format: cell-based, human
Design: RFU PODN (11730768_x_at) / Fold change /veh PODN (11730768_x_at) / RFU LINC00158 (11744669_a_at) / Fold change /veh LINC00158 (11744669_a_at) / RFU DUSP10 (11751237_a_at) / Fold change /veh DUSP10 (11751237_a_at) / RFU ID3 (11757404_x_at) / Fold change /veh ID3 (11757404_x_at) / RFU PLEKHG5 (11737974_s_at) / Fold change /veh PLEKHG5 (11737974_s_at) / RFU LRRC4B (11730491_at) / Fold change /veh LRRC4B (11730491_at) / RFU GIMAP4 (11747438_a_at) / Fold change /veh GIMAP4 (11747438_a_at) / RFU KRT8 (11758183_x_at) / Fold change /veh KRT8 (11758183_x_at) / RFU CNN1 (11734310_a_at) / Fold change /veh CNN1 (11734310_a_at) / RFU VPS37D (11726825_at) / Fold change /veh VPS37D (11726825_at) / RFU C10orf10 (11716522_x_at) / Fold change /veh C10orf10 (11716522_x_at) / RFU KIR2DL2 /// KIR2DL4 /// KIR2DL5A /// KIR2DL5B /// KIR2DS1 /// KIR2DS2 /// KIR2DS3 /// KIR2DS4 /// KIR3DL3 /// KIR3DL3 /// KIR3DS1 (11738374_at) / Fold change /veh KIR2DL2 /// KIR2DL4 /// KIR2DL5A /// KIR2DL5B /// KIR2DS1 /// KIR2DS2 /// KIR2DS3 /// KIR2DS4 /// KIR3DL3 /// KIR3DL3 /// KIR3DS1 (11738374_at) / RFU C1QL1 (11718748_at) / Fold change /veh C1QL1 (11718748_at) / RFU TMPRSS4 (11747572_a_at) / Fold change /veh TMPRSS4 (11747572_a_at) / RFU HAMP (11756126_x_at) / Fold change /veh HAMP (11756126_x_at) / RFU RNFT2 (11725882_a_at) / Fold change /veh RNFT2 (11725882_a_at) / RFU NR4A2 (11747474_a_at) / Fold change /veh NR4A2 (11747474_a_at) / RFU ABCC12 (11746883_a_at) / Fold change /veh ABCC12 (11746883_a_at) / RFU TMEM136 (11760407_x_at) / Fold change /veh TMEM136 (11760407_x_at) / RFU CLDN22 /// WWC2 (11732394_at) / Fold change /veh CLDN22 /// WWC2 (11732394_at) / RFU HLA-DPB1 (11760878_x_at) / Fold change /veh HLA-DPB1 (11760878_x_at) / RFU SPINT1 (11716480_a_at) / Fold change /veh SPINT1 (11716480_a_at) / RFU GAP43 (11754022_s_at) / Fold change /veh GAP43 (11754022_s_at) / RFU A4GNT (11735810_at) / Fold change /veh A4GNT (11735810_at) / RFU PRB3 (11715151_x_at) / Fold change /veh PRB3 (11715151_x_at) / RFU TUBB4B (11761932_at) / Fold change /veh TUBB4B (11761932_at) / RFU CAPN14 (11732068_a_at) / Fold change /veh CAPN14 (11732068_a_at) / RFU TMCC2 (11721928_a_at) / Fold change /veh TMCC2 (11721928_a_at) / RFU IRGQ (11745062_a_at) / Fold change /veh IRGQ (11745062_a_at) / RFU FAM174B (11720279_a_at) / Fold change /veh FAM174B (11720279_a_at) / RFU TMPRSS4 (11748680_a_at) / Fold change /veh TMPRSS4 (11748680_a_at) / RFU FAM212B (11763350_a_at) / Fold change /veh FAM212B (11763350_a_at) / RFU PLEKHG5 (11743358_a_at) / Fold change /veh PLEKHG5 (11743358_a_at) / RFU ZSCAN30 (11745921_a_at) / Fold change /veh ZSCAN30 (11745921_a_at) / RFU CMKLR1 (11741424_a_at) / Fold change /veh CMKLR1 (11741424_a_at) / RFU LOC101060620 /// MAPK8IP1 (11723275_at) / Fold change /veh LOC101060620 /// MAPK8IP1 (11723275_at) / RFU SPTSSB (11747773_x_at) / Fold change /veh SPTSSB (11747773_x_at) / RFU PRSS12 (11739890_at) / Fold change /veh PRSS12 (11739890_at) / RFU BIN1 (11741810_x_at) / Fold change /veh BIN1 (11741810_x_at) / RFU WNT11 (11732464_a_at) / Fold change /veh WNT11 (11732464_a_at) / RFU C10orf10 (11716521_a_at) / Fold change /veh C10orf10 (11716521_a_at) / RFU C5orf56 (11738089_at) / Fold change /veh C5orf56 (11738089_at) / RFU CYB561 (11721691_x_at) / Fold change /veh CYB561 (11721691_x_at) / RFU ANKRD19P (11752326_a_at) / Fold change /veh ANKRD19P (11752326_a_at) / RFU OR2T12 /// OR2T33 /// OR2T8 (11738714_s_at) / Fold change /veh OR2T12 /// OR2T33 /// OR2T8 (11738714_s_at) / RFU VCAN (11748164_a_at) / Fold change /veh VCAN (11748164_a_at) / RFU JSRP1 (11732532_at) / Fold change /veh JSRP1 (11732532_at) / RFU KRTAP10-11 (11738290_x_at) / Fold change /veh KRTAP10-11 (11738290_x_at) / RFU MYO3A (11730013_a_at) / Fold change /veh MYO3A (11730013_a_at) / RFU EBF3 (11725865_a_at) / Fold change /veh EBF3 (11725865_a_at) / RFU CAMK2N1 (11719241_x_at) / Fold change /veh CAMK2N1 (11719241_x_at) / RFU C5orf56 (11738088_a_at) / Fold change /veh C5orf56 (11738088_a_at) / RFU OLFML3 (11715873_a_at) / Fold change /veh OLFML3 (11715873_a_at) / RFU LOC100653217 /// NTM (11731650_a_at) / Fold change /veh LOC100653217 /// NTM (11731650_a_at) / RFU MAPK11 (11762145_a_at) / Fold change /veh MAPK11 (11762145_a_at) / RFU FIZ1 (11724087_x_at) / Fold change /veh FIZ1 (11724087_x_at) / RFU OASL (11726364_x_at) / Fold change /veh OASL (11726364_x_at) / RFU SOX15 (11748057_x_at) / Fold change /veh SOX15 (11748057_x_at) / RFU CD79A (11719716_a_at) / Fold change /veh CD79A (11719716_a_at) / RFU HIST1H1D (11736915_at) / Fold change /veh HIST1H1D (11736915_at) / RFU CASKIN2 (11723855_a_at) / Fold change /veh CASKIN2 (11723855_a_at) / RFU LOC730098 (11760151_x_at) / Fold change /veh LOC730098 (11760151_x_at) / RFU OR4N2 (11742367_at) / Fold change /veh OR4N2 (11742367_at) / RFU PRRT2 (11749266_a_at) / Fold change /veh PRRT2 (11749266_a_at) / RFU SNX32 (11753110_a_at) / Fold change /veh SNX32 (11753110_a_at) / RFU CDHR5 (11726645_a_at) / Fold change /veh CDHR5 (11726645_a_at) / RFU RCAN1 (11760418_a_at) / Fold change /veh RCAN1 (11760418_a_at) / RFU FAM167A (11723789_a_at) / Fold change /veh FAM167A (11723789_a_at) / RFU FAM26E (11764081_at) / Fold change /veh FAM26E (11764081_at) / RFU ISYNA1 (11749810_s_at) / Fold change /veh ISYNA1 (11749810_s_at) / RFU ACY1 (11761880_at) / Fold change /veh ACY1 (11761880_at) / RFU 11764098_at / Fold change /veh 11764098_at / RFU SAMD14 (11745864_x_at) / Fold change /veh SAMD14 (11745864_x_at) / RFU NPB (11741838_a_at) / Fold change /veh NPB (11741838_a_at) / RFU TMPRSS6 (11731388_a_at) / Fold change /veh TMPRSS6 (11731388_a_at) / RFU KRTAP10-2 (11738614_at) / Fold change /veh KRTAP10-2 (11738614_at) / RFU ARHGAP8 /// PRR5-ARHGAP8 (11727945_x_at) / Fold change /veh ARHGAP8 /// PRR5-ARHGAP8 (11727945_x_at) / RFU KRTAP5-7 /// NADSYN1 (11734609_at) / Fold change /veh KRTAP5-7 /// NADSYN1 (11734609_at) / RFU RASL12 (11751679_a_at) / Fold change /veh RASL12 (11751679_a_at) / RFU CDKN2B (11736163_a_at) / Fold change /veh CDKN2B (11736163_a_at) / RFU PRF1 (11729649_at) / Fold change /veh PRF1 (11729649_at) / RFU, ZNF638 /// ZNF638-IT1 / Fold change vs veh, ZNF638 /// ZNF638-IT1 / RFU, PANK3 / Fold change vs veh, PANK3 / RFU, SH3YL1 / Fold change vs veh, SH3YL1 / RFU, ZEB2 / Fold change vs veh, ZEB2 / RFU, NRIP1 / Fold change vs veh, NRIP1 / RFU, PTTG1IP / Fold change vs veh, PTTG1IP / RFU, CAPN2 / Fold change vs veh, CAPN2 / RFU, MED14 / Fold change vs veh, MED14 / RFU, SNORA58 / Fold change vs veh, SNORA58 / RFU, C1orf63 / Fold change vs veh, C1orf63 / RFU, LRRFIP1 / Fold change vs veh, LRRFIP1 / RFU, NDUFAF7 / Fold change vs veh, NDUFAF7 / RFU, SLC12A2 / Fold change vs veh, SLC12A2 / RFU, IBTK / Fold change vs veh, IBTK / RFU, ESF1 / Fold change vs veh, ESF1 / Fold change vs veh, TMEM50B / RFU, TAOK1 / Fold change vs veh, TAOK1 / RFU, ACBD3 / Fold change vs veh, ACBD3 / RFU, TMA16 / Fold change vs veh, TMA16 / RFU, RWDD3 / Fold change vs veh, RWDD3 / RFU, BCAT1 / Fold change vs veh, BCAT1 / RFU, EDEM3 / Fold change vs veh, EDEM3 / RFU, TMEM33 / Fold change vs veh, TMEM33 / RFU, WDR75 / Fold change vs veh, WDR75 / RFU, AHCTF1 / Fold change vs veh, AHCTF1 / RFU, TFRC / Fold change vs veh, TFRC / RFU, ZDHHC17 / Fold change vs veh, ZDHHC17 / RFU, NOM1 / Fold change vs veh, NOM1 / RFU, ARL8B / Fold change vs veh, ARL8B / RFU, ZBTB11 / Fold change vs veh, ZBTB11 / RFU, TAMM41 / Fold change vs veh, TAMM41 / RFU, KIAA1704 /// LOC100996395 / Fold change vs veh, KIAA1704 /// LOC100996395 / RFU, ING1 / Fold change vs veh, ING1 / RFU, TRMT61B / Fold change vs veh, TRMT61B / RFU, FUBP3 / Fold change vs veh, FUBP3 / RFU, TP53 / Fold change vs veh, TP53 / RFU, TNKS2 / Fold change vs veh, TNKS2 / RFU, ZFP14 / Fold change vs veh, ZFP14 / RFU, ACTR2 / Fold change vs veh, ACTR2 / RFU, PPP3R1 / Fold change vs veh, PPP3R1 / RFU, PIK3R1 / Fold change vs veh, PIK3R1 / RFU, HNRNPA1 / Fold change vs veh, HNRNPA1 / RFU, RNF170 / Fold change vs veh, RNF170 / RFU, ZNF28 / Fold change vs veh, ZNF28 / RFU, RNGTT / Fold change vs veh, RNGTT / RFU, OGT / Fold change vs veh, OGT / RFU, BRD1 / Fold change vs veh, BRD1 / RFU, MARS / Fold change vs veh, MARS / RFU, ZNF655 / Fold change vs veh, ZNF655 / RFU, FAHD1 / Fold change vs veh, FAHD1 / RFU, BDP1 / Fold change vs veh, BDP1 / RFU, LRRCC1 / Fold change vs veh, LRRCC1 / RFU, ARID1A / Fold change vs veh, ARID1A / RFU, ZNF146 / Fold change vs veh, ZNF146 / RFU, ZNF330 / Fold change vs veh, ZNF330 / RFU, GPN3 / Fold change vs veh, GPN3 / RFU, C9orf123 / Fold change vs veh, C9orf123 / RFU, N4BP2L2 / Fold change vs veh, N4BP2L2 / RFU, ARFIP1 / Fold change vs veh, ARFIP1 / RFU, FAM179B / Fold change vs veh, FAM179B / RFU, BCL10 / Fold change vs veh, BCL10 / RFU, UHRF1BP1L / Fold change vs veh, UHRF1BP1L / RFU, BET1 / Fold change vs veh, BET1 / RFU, CNOT2 / Fold change vs veh, CNOT2 / RFU, ZNF268 / Fold change vs veh, ZNF268 / Fold change vs veh, ZNF507 / RFU, DGCR2 / Fold change vs veh, DGCR2 / RFU, WDSUB1 / Fold change vs veh, WDSUB1 / Fold change vs veh, HSP90B1 /// MIR3652 / RFU, ADSS / Fold change vs veh, ADSS / RFU, GK / Fold change vs veh, GK / RFU, ZNF148 / Fold change vs veh, ZNF148 / RFU, TAF9 / Fold change vs veh, TAF9 / RFU, SLC1A5 / Fold change vs veh, SLC1A5 / RFU, SLMO2 / Fold change vs veh, SLMO2 / RFU, ABCC4 / Fold change vs veh, ABCC4 / RFU, LOC101060439 /// RAP1B / Fold change vs veh, LOC101060439 /// RAP1B / RFU, RFX7 / Fold change vs veh, RFX7 / RFU, GTPBP10 / Fold change vs veh, GTPBP10 / RFU, CNEP1R1 / Fold change vs veh, CNEP1R1 / RFU, BIVM-ERCC5 /// ERCC5 / Fold change vs veh, BIVM-ERCC5 /// ERCC5 / RFU, ILF3 / Fold change vs veh, ILF3 / RFU 11762660_at / Fold change /veh 11762660_at / RFU VCAN (11757783_s_at) / Fold change /veh VCAN (11757783_s_at) / RFU DDX43 (11728927_at) / Fold change /veh DDX43 (11728927_at) / RFU KRT8 (11758188_x_at) / Fold change /veh KRT8 (11758188_x_at) / RFU NKD1 (11759106_at) / Fold change /veh NKD1 (11759106_at) / RFU SRD5A1 (11742802_a_at) / Fold change /veh SRD5A1 (11742802_a_at) / RFU TPSAB1 /// TPSB2 (11721975_s_at) / Fold change /veh TPSAB1 /// TPSB2 (11721975_s_at) / RFU GSTM3 (11746129_a_at) / Fold change /veh GSTM3 (11746129_a_at) / RFU IL23R (11737362_x_at) / Fold change /veh IL23R (11737362_x_at) / RFU TMEM51 (11727254_a_at) / Fold change /veh TMEM51 (11727254_a_at) / RFU PIWIL2 (11732686_x_at) / Fold change /veh PIWIL2 (11732686_x_at) / RFU ORM1 (11744905_x_at) / Fold change /veh ORM1 (11744905_x_at) / RFU CCDC152 (11743942_at) / Fold change /veh CCDC152 (11743942_at) / RFU ECM1 (11717891_a_at) / Fold change /veh ECM1 (11717891_a_at) / RFU IL23R (11748794_a_at) / Fold change /veh IL23R (11748794_a_at) / RFU TNFAIP8L3 (11732012_x_at) / Fold change /veh TNFAIP8L3 (11732012_x_at) / RFU MBOAT4 (11741988_at) / Fold change /veh MBOAT4 (11741988_at) / RFU 11764193_at / Fold change /veh 11764193_at / RFU TMEM53 (11763286_at) / Fold change /veh TMEM53 (11763286_at) / RFU MAGEB2 (11727129_at) / Fold change /veh MAGEB2 (11727129_at) / RFU TMEM200A (11744735_a_at) / Fold change /veh TMEM200A (11744735_a_at) / RFU CCDC152 (11751479_a_at) / Fold change /veh CCDC152 (11751479_a_at) / RFU FAM211A (11726209_a_at) / Fold change /veh FAM211A (11726209_a_at) / RFU RGS16 (11746705_a_at) / Fold change /veh RGS16 (11746705_a_at) / RFU VCAN (11755009_s_at) / Fold change /veh VCAN (11755009_s_at) / RFU RHOB (11743442_s_at) / Fold change /veh RHOB (11743442_s_at) / RFU RGS16 (11720943_a_at) / Fold change /veh RGS16 (11720943_a_at) / RFU RGS16 (11720944_at) / Fold change /veh RGS16 (11720944_at) / RFU, VPS4B / Fold change vs veh, VPS4B / RFU, CREB1 / Fold change vs veh, CREB1 / RFU, DNAJC13 / Fold change vs veh, DNAJC13 / RFU, GNAQ / Fold change vs veh, GNAQ / RFU, CDK5R1 / Fold change vs veh, CDK5R1 / RFU, ZRANB3 / Fold change vs veh, ZRANB3 / RFU, CUL4A / Fold change vs veh, CUL4A / RFU, CCNY / Fold change vs veh, CCNY / RFU, UFL1 / Fold change vs veh, UFL1 / RFU, COG3 / Fold change vs veh, COG3 / RFU, DIAPH2 / Fold change vs veh, DIAPH2 / RFU, SKA2 / Fold change vs veh, SKA2 / RFU, AFF3 / Fold change vs veh, AFF3 / RFU, LMF1 / Fold change vs veh, LMF1 / RFU, IPO11 / Fold change vs veh, IPO11 / RFU, DFFB / Fold change vs veh, DFFB / RFU, FOXP1 / Fold change vs veh, FOXP1 / RFU, CARD8 / Fold change vs veh, CARD8 / RFU, STRN3 / Fold change vs veh, STRN3 / RFU, ADK / Fold change vs veh, ADK / RFU, RASSF2 / Fold change vs veh, RASSF2 / RFU, WIPF1 / Fold change vs veh, WIPF1 / RFU, LARP1B / Fold change vs veh, LARP1B / RFU, RASA1 / Fold change vs veh, RASA1 / RFU, RB1 / Fold change vs veh, RB1 / RFU, PPFIA1 / Fold change vs veh, PPFIA1 / RFU, MAT2A / Fold change vs veh, MAT2A / RFU, CCT5 / Fold change vs veh, CCT5 / RFU, WDR92 / Fold change vs veh, WDR92 / RFU, CUX1 / Fold change vs veh, CUX1 / RFU, TTC7A / Fold change vs veh, TTC7A / RFU, TMEM135 / Fold change vs veh, TMEM135 / RFU, DEPTOR / Fold change vs veh, DEPTOR / RFU, CPM / Fold change vs veh, CPM / RFU, DNAJB6 / Fold change vs veh, DNAJB6 / RFU, CACNA2D3 / Fold change vs veh, CACNA2D3 / RFU, DTX4 / Fold change vs veh, DTX4 / RFU, TFCP2 / Fold change vs veh, TFCP2 / RFU, GMCL1 /// GMCL1P1 / Fold change vs veh, GMCL1 /// GMCL1P1 / RFU, AEBP2 / Fold change vs veh, AEBP2 / RFU, SNHG1 /// SNORD22 /// SNORD25 /// SNORD26 /// SNORD27 /// SNORD28 /// SNORD29 /// SNORD31 / Fold change vs veh, SNHG1 /// SNORD22 /// SNORD25 /// SNORD26 /// SNORD27 /// SNORD28 /// SNORD29 /// SNORD31 / Fold change (Aza/veh), C12orf56 (ProbeSet 11735607_a_at) / Fold change (ACY-1035/veh), C12orf56 (ProbeSet 11735607_a_at) / Fold change (Aza/veh), FGFR1OP (ProbeSet 11751329_s_at) / Fold change (ACY-1035/veh), FGFR1OP (ProbeSet 11751329_s_at) / Fold change (Aza/veh), VPS36 (ProbeSet 11739960_a_at) / Fold change (ACY-1035/veh), VPS36 (ProbeSet 11739960_a_at) / RFU SYPL1 (11715823_x_at) / Fold change /veh SYPL1 (11715823_x_at) / RFU IGFBP7 (11715501_s_at) / Fold change /veh IGFBP7 (11715501_s_at) / RFU REEP3 (11722064_at) / Fold change /veh REEP3 (11722064_at) / RFU IGLL1 (11728026_x_at) / Fold change /veh IGLL1 (11728026_x_at): dose or concentration left out as unconfirmed
Settings: MV-4-11 cells, 48 hours

Compound: Nc1ncn([C@@H]2O[C@H](CO)[C@@H](O)[C@H]2O)c(=O)n1 [azacitidine]
- RFU OLFML3 (11715873_a_at): 10.99 RFU
